One assay concerns P. aeruginosa. The assay can be described thus: In vivo antimicrobial activity, P. aeruginosa infection in mice. The settings on record: Pseudomonas aeruginosa, sc. From the text:
The A-38533 antibiotics have shown in vivo antimicrobial activity against experimental bacterial infections. […] Bacteriol. 81, 233-235 (1961)]. The LD50 values in Table XI refer to the infecting challenge of the pathogen, the measure being the number by which the LD50 (ip) of the infecting organism is multiplied.

A further assay concerns Pseudomonas aeruginosa. Put plainly: In vitro activity, standard agar-dilution test (MIC). Type of assay: cell-based. An excerpt:
The A-38533 antibiotics inhibit the growth of certain gram-negative pathogenic organisms, particularly Pseudomonas species. The minimal inhibitory concentrations (MIC's) at which the A-38533 factors A1, A2, B and C inhibit various strains of Pseudomonas aeruginosa and Neisseria gonorrhea, as determined by standard agar-dilution tests, are summarized in Table X.

Values after ≈ are worked out from the molar mass of the structure shown.

A word on the ED50: it is the midpoint of the dose-response relation. Low values mean an effect at a small dose, high ones a need for a large dose. By MIC is commonly meant the lowest concentration found to suppress growth.

Take `CC1(C)S[C@@H]2[C@H](NC(=O)C(C(=O)O)c3ccccc3)C(=O)N2[C@H]1C(=O)O` (stereo partly drawn) [Carbenicillin]: the ED50 with P. aeruginosa (Test A, P. aeruginosa X239, SC, ×3 doses, challenge 76 × LD50 (ip)) worked out at 29.3 mg/kg; in the assay with P. aeruginosa (Test B, P. aeruginosa 24J, ×3 doses, challenge 7.6 × LD50 (ip)) it was 31.9 mg/kg; in the assay with P. aeruginosa (Test C, P. aeruginosa 24J, ×3 doses, challenge 21.5 × LD50 (ip)), 57.5 mg/kg. Besides, the MIC amounted to 128 µg/mL (≈ 338 µM) in the assay on Pseudomonas aeruginosa (strain 4276); 32 µg/mL (≈ 84.6 µM) with Pseudomonas aeruginosa (strain PA103); 32 µg/mL (≈ 84.6 µM) against Pseudomonas aeruginosa (strain PI23); 32 µg/mL (≈ 84.6 µM) in the assay on Pseudomonas aeruginosa (strain PS9); 16 µg/mL (≈ 42.3 µM) against Pseudomonas aeruginosa (strain PS15); 64 µg/mL (≈ 169 µM) with Pseudomonas aeruginosa (strain PS25). Also, the MIC is 16 µg/mL (≈ 42.3 µM) against Pseudomonas aeruginosa (strain X48), 32 µg/mL (≈ 84.6 µM) against Pseudomonas aeruginosa (strain X239) and 16 µg/mL (≈ 42.3 µM) against Pseudomonas aeruginosa (strain X528).
For the molecule `NC[C@H]1O[C@H](O[C@H]2[C@H](O)[C@@H](O[C@H]3O[C@H](CO)[C@@H](O)[C@H](N)[C@H]3O)[C@H](N)C[C@@H]2N)[C@H](N)C[C@@H]1O` [Tobramycin], the ED50 with P. aeruginosa (Test A, P. aeruginosa X239, SC, ×2 doses, challenge 76 × LD50 (ip)) was 0.4 mg/kg; with P. aeruginosa (Test B, P. aeruginosa 24J, ×2 doses, challenge 7.6 × LD50 (ip)), 0.4 mg/kg; in the assay with P. aeruginosa (Test C, P. aeruginosa 24J, ×2 doses, challenge 21.5 × LD50 (ip)), 0.6 mg/kg.
